Data published in US5041535A, “Antileukemic and immunostimulant peptides” (Richter Gedeon Vegyeszeti Gyar Rt., priority 1986, dated 1991).
Square brackets hold non-standard residues; d marks the D form. Peptide text beside a SMILES is read from it. pGlu = O=C1CC[C@@H](C(=O)O)N1

Tests used:
[1] = system: human K-562 erythroleukaemical cell-line; assay: Inhibition of the proliferation of tumor cells (K-562); type: cell-based; conditions: 72nd hour after treatment, percentage of the control
Protocol: In the test human K-562 erythroleukaemical cell-line is used (Karolinska Institute, Stockholm). Incubation is carried out in a nutrient medium designated RPMI-1640 (manufactured by Flow, Great Britain) comprising 10% of foetal calf serum, at a temperature of 37° C., in a humidified incubator containing 3% of carbon dioxide, in plastic dishes. Every point of measurement corresponds to the average of the data measured in three dishes, each. At the beginning of the test the dilution amounts to 0.5×10^5 cells/ml. Treatment is carried out 24 hours after dilution in a manner that the medium is not changed after the treatment. The cells are counted for 96 hours after dilution every 24th hour wit the aid of a Buerker chamber.
Under the effect of the peptide in the 24th hour after treatment the cell number stagnates and later it increases to a very small extent. […] The tumor-cell division inhibiting effect of the new peptides is summarized in Table 1 (72 hours after treatment). The rate of inhibition is expressed in the percentage of the control. It clearly appears from the data of the Table that the tested peptides inhibit the proliferation of human K-562 erythroleukaemic cells.

[2] = system: lymphocytes inhibited by Azathioprine; assay: E-rosetta test inhibited by Azathioprine; type: cell-based
Protocol: Inhibition of the proliferation of T-lymphocytes is tested in the E-rosetta test inhibited by Azathioprine [6-(1-methyl-4-nitroimidazole-5-yl-thio)-purine; Thymus 1, 195 (1980)].
To 200 μl of a healthy lymphocyte cell-suspension 500 μl/ml of Azathioprine and 200 μl of a separate dilution of the test compound in HBBS buffer (manufacturer: Flow, Great Britain) are added (concentration range: 10^-3 to […]). The mixture is incubated at a temperature of 37° C. in air containing 5% of carbon dioxide for 60 minutes, whereupon 200 μl of a 1% sheep erythrocyte suspension are added. The mixture thus-obtained is centrifuged at 1,000 r.p.m. for 5 minutes, the supernatant is removed by decanting and in the suspension the lymphocytes forming E-rosetta are counted under a microscope from at least 400 cells.
Under the effect of the peptides the E-rosetta forming activity of the lymphocytes inhibited by Azathioprine increases to different extent. […] It appears from the data of Table 2 that the tested peptides increase the E-rosetta forming capacity of inhibited lymphocytes, i.e. the peptides of the present invention show immunostimulant effect.

[3] = system: antibody production inhibited by cyclophosphamide; assay: Effect on antibody production in mice treated with cyclophosphamide; type: in vivo, CELP mice; conditions: cyclophosphamide 100 mg/kg i.p., titer on 6th day
Protocol: The effect on in vivo antibody production is tested on CELP mice treated with a 100 mg/kg body weight dose of cyclophosphamide {2-[bis-(2-chloroethyl)-amino]-tetrahydro-2H-1,3,2-oxaza -phosphorine-2-oxide; method: Z. Naturforsch. 35B, 1476 (1980)}. The mice are intraperitoneally immunized with a 1% sheep erythrocyte suspension previously washed three times with a 0.9% sodium chloride solution after 10 minutes of centrifuging at 2,500 r.p.m. Simultaneously with immunization carried out on the 0. day, the activity of the immune system is suppressed by means of treatment with a 100 mg/kg i.p. does of cyclophosphamide. On the 3rd day of the test the peptides are administered to the animals intraperitoneally in a dose of 5, 50 and occasionally 100 mg/kg respectively. On the 6th day of the test blood is taken retroorbitally from the mice and the anti-sheep erythrocyte titer of the serum is determined. […] The effect of the peptides is expressed as percentage of the relief of inhibition (G %).

[4] = system: inflammation induced by oxozolone; assay: Dermatitis test induced with oxazolone; type: in vivo, CFLP mice; conditions: 24th hour after treatment, ear weight increase
Protocol: In this test a modified pharmacological model of D. P. Evans et al. [Br. J. Pharmac. 43, 403-488 (1971)] is used.
The abdominal skin of male CFLP mice weighing 20-22 g is painted after the removal of the hair with 0.1 ml of a 2% solution of oxazolon (4-ethoxymethyl-2-phenyl-oxazoline, manufacturer Sigma) in sunflower oil. On the right ear of the test animals 7 days after sensitization (painting) inflammatory reaction is induced with the aid of 10 μl of a 2% acetonous oxazolone solution and simultaneously the animals are treated with a 1 or 2 mg/kg, respectively, i.p. does of the test compound. The test compound is dissolved in a physiological sodium chloride solution in such a concentration that the active ingredient content corresponding to the dose should be dissolved in a volume of 0.5 ml/10 g animal body weight.
The antiinflammatory effect is determined as follows: the animals are sacrificed in the 24th hour after treatment, whereupon the right and left ears are cut off. The percentual weight increase of the right ear related to the left ear is characteristic of the rate of inflammation induced during the test, while the percentual reduction of weight increase of the treated animals related to the untreated control is proportional to the antiinflammatory effect. In Table 4 the reduction of weight increase (antiinflammatory effect) achieved by the test compounds is disclosed, as the percentage of the untreated control.

[5] = peptide 5 mg/kg i.p. on 3rd day
[6] = peptide 50 mg/kg i.p. on 3rd day

Row | SMILES | Inhibition of the proliferation of K-562 cells, inhibition (c %) ([1]; peptide 1/ug/ml) | Inhibition of the proliferation of K-562 cells, inhibition (c %) ([1]; peptide 10/ug/ml) | Relief of inhibition (R %) of E-rosetta forming activity ([2]; peptide 10^-3 mole/l) | Relief of inhibition (R %) of E-rosetta forming activity ([2]; peptide 10^-5 mole/l) | Relief of inhibition (R %) of E-rosetta forming activity ([2]; peptide 10^-7 mole/l) | Relief of inhibition (R %) of E-rosetta forming activity ([2]; peptide 10^-9 mole/l) | Relief of inhibition (R %) of E-rosetta forming activity ([2]; peptide 10^-11 mole/l) | Restoration of primary immune answer, G % [3, 5] | Restoration of primary immune answer, G % [3, 6] | Inhibition of inflammation induced by oxozolone, inhibition as % of control ([4]; 1 mg/kg i.p.) | Restoration of primary immune answer, G % ([3]; peptide 100 mg/kg i.p. on 3rd day) | Inhibition of inflammation induced by oxozolone, inhibition as % of control ([4]; 2 mg/kg i.p.)
1 | NCCCC[C@H](NC(=O)[C@H](CCC(=O)O)NC(=O)[C@@H]1CCC(=O)N1)C(N)=O [Peptide 2, Glp-Glu-Lys-NH2] ([pGlu]-Glu-Lys-NH2) | 40% | 55% | 25.4% | 20.2% | 31.7% | 24.3% | 37.1% | 23.0% | 3.0% |  |  | 
2 | CC(C)[C@H](NC(=O)[C@H](CC(=O)O)NC(=O)[C@H](CCCCN)NC(=O)[C@@H](N)CCCNC(=N)N)C(=O)O [B, Arg--Lys--Asp--Val, reference compound] (H-RKDV-OH) |  | 4% | 35.4% | 35.4% | 46.4% | 32.5% | 34.0% |  |  |  |  | 
3 | N=C(N)NCCC[C@H](N)C(=O)N[C@@H](CCCCN)C(=O)N[C@@H](CCC(=O)O)C(N)=O [Peptide 3, Arg-Lys-Glu-NH2] (H-Arg-Lys-Glu-NH2) | 40% | 52% | 24.3% | 22.6% | 15.6% | 24.8% | 17.0% | 78.1% | 47.6% |  |  | 
4 | CC(C)[C@H](NC(=O)[C@H](CC(=O)O)NC(=O)[C@H](CCCCN)NC(=O)[C@@H](N)CCCN=C(N)N)C(=O)N[C@@H](Cc1ccc(O)cc1)C(=O)O [A, Arg--Lys--Asp--Val--Tyr, reference compound] (H-RKDVY-OH) |  | 32% | 31.7% | 29.3% | 38.7% | 30.0% | 19.4% |  |  |  |  | 
5 | N=C(N)NCCC[C@H](N)C(=O)N[C@@H](CCCCN)C(=O)N[C@@H](CCC(=O)O)C(=O)O [Peptide 5, Arg-Lys-GIu-OH] (H-Arg-Lys-Glu-OH) | 40% | 48% | 24.5% | 24.6% | 24.7% | 24.0% | 27.5% | 61.5% | 76.9% |  |  | 
6 | CC(C)C[C@H](NC(=O)[C@@H](N)CCC(=O)O)C(=O)N[C@H](C(=O)N[C@@H](C)C(=O)O)C(C)C [Peptide 13, GIu-Leu-VaI-AIa-OH] (H-ELVA-OH) | 55% | 65% |  |  |  |  |  | 20.9% | 32.8% | 40% |  | 
7 | CC(C)C[C@H](N)C(=O)N1CCC[C@H]1C(=O)N[C@@H](C)C(=O)NCC(=O)O [Peptide 14, Leu-Pro AIa-Gly-OH] (H-LPAG-OH) | 45% | 70% |  |  |  |  |  | 34.0% | 56.8% | 55% |  | 
8 | N=C(N)NCCC[C@H](N)C(=O)N[C@@H](CCCCN)C(=O)N[C@@H](CC(=O)O)C(N)=O [Peptide 4, Arg-Lys-Asp-NH2] (H-Arg-Lys-Asp-NH2) | 25% | 50% | 29.7% | 30.0% | 18.7% | 23.9% | 18.5% |  |  | 27% | 28.5% | 
9 | CC(C)C[C@H](N)C(=O)N[C@H](C(=O)N[C@@H](C)C(=O)O)C(C)C [Peptide 7, Leu-VaI-AIa-OH] (H-Leu-Val-Ala-OH) | 38% | 52% |  |  |  |  |  | 73.3% | 100.0% |  |  | 
10 | NCCCC[C@H](NC(=O)[C@H](CCCCN)NC(=O)[C@H](CCC(=O)O)NC(=O)[C@@H](N)CCCCN)C(=O)O [Peptide 10, Lys-GIu-Lys-Lys-OH] (H-KEKK-OH) | 28% | 40% | 22.9% | 16.3% | 25.2% | 21.1% | 26.6% | 15.5% | 37.7% | 22% |  | 79%
